Laboratory results taken from patent US4604380A, “C-23-substituted mycaminosyltylonolide compounds, pharmaceutical compositions and methods of use” (Eli Lilly and Company, priority 1985, dated 1986).
≈ marks a conversion by molar mass, not a printed value. Where “and” joins values, the source holds several entries; their conditions need not be identical. Equal entries are not always repeated. Where two headings read alike, the source gives them in different places.

Columns and labels:
Staphylococcus aureus = assay: ED50 vs. Staphylococcus aureus experimental infection in mice (Table V); format: in vivo; details: two doses, dose protecting 50% of animals
Experimental: (§1) Certain formula 1a compounds have also shown in vivo antimicrobial activity against experimental bacterial infections. When two doses of test compound were administered to mice in experimental infections, the activity observed was measured as an ED50 value [effective dose in mg/kg to protect 50% of the test animals: see Warren Wick, et al., J. Bacteriol. 81, 233-235 (1961)].

[1] = tested on: Streptococcus pneumoniae Park I; assay: microbe, parasite or virus in culture; format: cell-based
Experimental: (§2) The MIC's s in Table III were determined by standard agar-dilution assays. The MIC's in Table IV were obtained using a conventional broth-dilution microtiter test.

[2] = tested on: Streptococcous pneumoniae; assay: ED50 vs. Streptococcous pneumoniae experimental infection in mice (Table VII); format: in vivo; details: two doses; for ED50: Mus musculus
Experimental: as §1

Streptococcus pyogenes = assay: ED50 vs Streptococcus pyogenes experimental infection in mice (Table VI); format: in vivo; details: two doses, several values = results from more than one test
Experimental: as §1

[3] = tested on: Staphylococcus epidermidis 222; assay: MIC, standard agar-dilution assay (Table III); format: cell-based
Experimental: as §2

[4] = tested on: Staphylococcus aureus X400; assay: MIC, standard agar-dilution assay (Table III); format: cell-based; details: Staphylococcus aureus, X400
Experimental: as §2

[5] = tested on: Streptococcus pyogenes C203; assay: MIC, standard agar-dilution assay (Table III); format: cell-based
Experimental: as §2

[6] = tested on: Staphylococcus aureus X1.1; assay: MIC, standard agar-dilution assay (Table III); format: cell-based
Experimental: as §2

[7] = tested on: Haemophilus influenzae C.L.; assay: MIC, standard agar-dilution assay (Table III); format: cell-based
Experimental: as §2

[8] = tested on: Streptococcus Group D 2041; assay: MIC, standard agar-dilution assay (Table III); format: cell-based; details: GROUPD2041
Experimental: as §2

[9] = tested on: Streptococcus Group D X66; assay: MIC, standard agar-dilution assay (Table III); format: cell-based
Experimental: as §2

[10] = tested on: Staphylococcus epidermidis EPI1; assay: MIC, standard agar-dilution assay (Table III); format: cell-based
Experimental: as §2

[11] = tested on: Haemophilus influenzae 76; assay: MIC, standard agar-dilution assay (Table III); format: cell-based; details: agar dilution; Haemophilus influenzae 76, ampicillin-resistant strain; read-out: MIC
Experimental: as §2

[12] = tested on: Staphylococcus aureus V41; assay: MIC, standard agar-dilution assay (Table III); format: cell-based; details: Staphylococcus aureus V41, penicillin-resistant strain
Experimental: as §2

[13] = tested on: Staphylococcus aureus S13E; assay: MIC, standard agar-dilution assay (Table III); format: cell-based
Experimental: as §2

[14] = sc, subcutaneous, read-out: ED50 Subcutaneous
[15] = agar dilution, Staphylococcus epidermidis 222, read-out: MIC
[16] = agar dilution, Haemophilus influenzae C.L., ampicillin-sensitive strain, read-out: MIC
[17] = agar dilution, Streptococcus Group D 2041, read-out: MIC
[18] = agar dilution, Streptococcus Group D X66, read-out: MIC
[19] = Staphylococcus epidermidis, EPI1
[20] = agar dilution, Streptococcus pneumoniae Park I, read-out: MIC

| SMILES | ED50 (Staphylococcus aureus; [14]) [mg/kg] | ED50 [2, 14] [mg/kg] | ED50 (Streptococcus pyogenes; [14]) [mg/kg] | MIC [3, 15] [mg/L] | MIC [4] [mg/L] | MIC [6] [mg/L] | MIC [7, 16] [mg/L] | MIC [8, 17] [mg/L] | MIC [9, 18] [mg/L] | MIC [11] [mg/L] | MIC [12] [mg/L] | MIC [13] [mg/L] | MIC ([5]; Streptococcus pyogenes, C203) [mg/L] | MIC [8] [mg/L] | MIC [9] [mg/L] | MIC [10, 19] [mg/L] | ED50 (Staphylococcus aureus; po, read-out: ED50 Oral) [mg/kg] | MIC [1, 20] [mg/L] | ED50 ([2]; po, read-out: ED50 Oral) [mg/kg] | ED50 (Streptococcus pyogenes; po, read-out: ED50 Oral) [mg/kg] | also measured |
| --- | --- | --- | --- | --- | --- | --- | --- | --- | --- | --- | --- | --- | --- | --- | --- | --- | --- | --- | --- | --- | --- |
| CCC1OC(=O)CC(O)C(C)C(OC2OC(C)C(O)C(N(C)C)C2O)C(CC=O)CC(C)C(=O)C=CC(C)=CC1CN1CCc2ccccc2C1 (stereo not drawn) [Compound 29, 23-deoxy-23-(3,4-dihydro-1H--isoquinolin-2-yl)-OMT] | > 10 | > 10 | > 10 | 0.125 (≈ 0.175 µM) | 0.25 (≈ 0.351 µM) | 0.25 (≈ 0.351 µM) | 1 (≈ 1.4 µM) | 0.25 (≈ 0.351 µM) | 0.125 (≈ 0.175 µM) | 1 (≈ 1.4 µM) | 0.25 (≈ 0.351 µM) | 0.25 (≈ 0.351 µM) |  |  |  |  |  |  |  |  | MIC ([1]; Streptococcus pneumoniae): 0.03 mg/L (≈ 0.0421 µM); MIC ([5]; agar dilution, Streptococcus pyogenes C203, read-out: MIC): 0.06 mg/L (≈ 0.0842 µM); MIC ([10]; agar dilution, Staphylococcus epidermidis EPI1, read-out: MIC): 0.125 mg/L (≈ 0.175 µM) |
| CCC1OC(=O)CC(O)C(C)C(OC2OC(C)C(O)C(N(C)C)C2O)C(CC=O)CC(C)C(=O)C=CC(C)=CC1CN1CCC2CCCCC2C1 (stereo not drawn) [Compound 33, 23-deoxy-23-(octahydro-1H--isoquinolin-2-yl)-OMT] | 7.56 | 10 | > 10 | 0.125 (≈ 0.174 µM) | 0.25 (≈ 0.348 µM) | 0.5 (≈ 0.695 µM) |  |  |  | 0.25 (≈ 0.348 µM) | 0.5 (≈ 0.695 µM) | 0.5 (≈ 0.695 µM) | 0.03 (≈ 0.0417 µM) | 0.5 (≈ 0.695 µM) | 0.5 (≈ 0.695 µM) | 0.5 (≈ 0.695 µM) |  |  |  |  | MIC ([1]; Streptococcus pneumoniae, read-out: MIC): 0.06 mg/L (≈ 0.0835 µM); MIC ([7]; Haemophilus influenzae): 0.5 mg/L (≈ 0.695 µM) |
| CCC1OC(=O)CC(O)C(C)C(OC2OC(C)C(O)C(N(C)C)C2O)C(CC=O)CC(C)C(=O)C=CC(C)=CC1CN1CCC2CCCCC21 (stereo not drawn) [Compound 35, 23-deoxy-23-(octahydro-1H--indol-1-yl)-OMT] |  |  | 1.86 | 0.125 (≈ 0.177 µM) | 0.25 (≈ 0.355 µM) | 0.25 (≈ 0.355 µM) | 0.5 (≈ 0.709 µM) |  |  | 1 (≈ 1.42 µM) | 0.25 (≈ 0.355 µM) | 0.25 (≈ 0.355 µM) | 0.5 (≈ 0.709 µM) | 0.25 (≈ 0.355 µM) | 0.25 (≈ 0.355 µM) | 0.25 (≈ 0.355 µM) | 100 | 1 (≈ 1.42 µM) | 71 | 87.1 | ED50 Subcutaneous (Streptococcus pyogenes; subcutaneous): 2.5 mg/kg × 2 |
| CCC1OC(=O)CC(O)C(C)C(OC2OC(C)C(O)C(N(C)C)C2O)C(CC=O)CC(C)C(=O)C=CC(C)=CC1CN1CC2CC=CCC2C1 (stereo not drawn) [Compound 37] | 2.74 | 1.66 |  |  | 0.25 (≈ 0.356 µM) | 0.25 (≈ 0.356 µM) | 0.5 (≈ 0.711 µM) | 0.25 (≈ 0.356 µM) | 0.125 (≈ 0.178 µM) | 1 (≈ 1.42 µM) | 0.25 (≈ 0.356 µM) | 0.25 (≈ 0.356 µM) | 0.06 (≈ 0.0854 µM) |  |  | 0.25 (≈ 0.356 µM) | 85 | 0.125 (≈ 0.178 µM) | 87 | 87 | ED50 Subcutaneous (Staphylococcus aureus; subcutaneous): 3.92 mg/kg × 2 and 3.42 mg/kg × 2; ED50 Subcutaneous ([2]; subcutaneous): 2.97 mg/kg × 2; MIC ([3]; Staphylococcus epidermidis, 222): 0.06 mg/L (≈ 0.0854 µM) |
